# Test results taken from publication PMC3579193, “Elucidation of relaxin-3 binding interactions in the extracellular loops of RXFP3” (Frontiers in Endocrinology, 2013).
# Positions count from the first letter of the chain named. Entries after “also recorded” stand apart in the source; their conditions may differ.
# Columns and labels:
# [1] = target: T1, HA-RXFP3 ∆1–33 (Homo sapiens, UniProt Q9NSD7); assay: Competition binding with Eu-H3/I5, HA-RXFP3 ∆1–33
# T1 construct: expressed in transfected cells; host or cells: HEK-293T
# T1 sequence (Q9NSD7 34-469): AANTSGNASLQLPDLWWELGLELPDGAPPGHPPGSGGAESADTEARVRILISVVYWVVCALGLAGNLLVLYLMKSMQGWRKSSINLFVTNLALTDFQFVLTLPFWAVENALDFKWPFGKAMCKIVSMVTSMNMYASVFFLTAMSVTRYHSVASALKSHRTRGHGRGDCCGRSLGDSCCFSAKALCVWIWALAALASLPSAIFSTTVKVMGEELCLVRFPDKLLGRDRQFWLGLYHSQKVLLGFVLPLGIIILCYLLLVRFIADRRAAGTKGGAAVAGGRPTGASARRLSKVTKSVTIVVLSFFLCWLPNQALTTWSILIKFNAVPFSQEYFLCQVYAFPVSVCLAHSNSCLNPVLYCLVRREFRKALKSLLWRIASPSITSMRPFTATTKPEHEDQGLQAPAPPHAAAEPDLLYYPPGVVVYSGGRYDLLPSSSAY
# Text: (§1) PCR reactions and cloning were undertaken as previously described ([Scott et al., 2006], [2012]).
# A pcDNA3.1zeo (+) vector with a start codon and HA tag (pcDNA3.1zeo (+)-HA) was produced by ligating a double stranded primer containing a BamHI site at the 5′ end followed by a start codon and HA tag and then a EcoRV blunt site at the 3′ end (Table 2) into a pcDNA3.1zeo (+) vector cut with BamHI and EcoRV. […]
# HEK-293T cells were transfected in 96 well optiplates (Perkin Elmer) with plasmids encoding the constructs of interest and Eu-H3/I5 binding assays conducted as described previously ([Luo et al., 2010]; [Haugaard-Kedstrom et al., 2011]). […] Binding data are expressed as mean ± standard error of mean (SEM) of % specific binding of triplicate measurements pooled from at least three independent experiments. Data were analyzed using Graphpad PRISM (Graphpad Inc.) and a non-linear regression one-site binding model was used to plot curves and calculate pIC50 values. […] The HA epitope was detected using a purified mouse monoclonal anti-HA antibody [HA.11(16B12), Covance] and a Alexafluor488-labeled goat anti mouse IgG (Invitrogen) in cell surface expression assays that were performed in 24 well plates as previously described ([Yan et al., 2008]). […] Pooled data were analyzed using one-way ANOVA coupled to Newman–Keuls multiple comparison test for multiple group comparison.
# [2] = target: T2, HA-RXFP3 (Homo sapiens, UniProt Q9NSD7); assay: Competition binding with Eu-H3/I5, HA-RXFP3; conditions: HA-RXFP3 vs wild-type RXFP3, competition binding
# T2 construct: expressed in transfected cells; host or cells: HEK-293T
# T2 sequence (Q9NSD7 2-469 limits assumed): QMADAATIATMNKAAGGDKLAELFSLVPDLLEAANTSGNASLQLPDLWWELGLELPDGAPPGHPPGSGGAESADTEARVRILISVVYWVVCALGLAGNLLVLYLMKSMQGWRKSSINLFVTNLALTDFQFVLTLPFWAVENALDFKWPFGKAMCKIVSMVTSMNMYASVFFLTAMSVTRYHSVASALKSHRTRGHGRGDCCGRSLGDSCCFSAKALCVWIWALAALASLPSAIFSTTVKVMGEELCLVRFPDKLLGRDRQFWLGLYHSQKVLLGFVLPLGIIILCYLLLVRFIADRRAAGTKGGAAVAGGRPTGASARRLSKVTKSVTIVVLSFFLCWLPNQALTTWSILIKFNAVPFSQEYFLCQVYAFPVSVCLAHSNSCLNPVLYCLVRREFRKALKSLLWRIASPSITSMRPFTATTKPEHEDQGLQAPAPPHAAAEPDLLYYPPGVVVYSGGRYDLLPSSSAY
# Description: HEK-293T cells were transfected in 96 well optiplates (Perkin Elmer) with plasmids encoding the constructs of interest and Eu-H3/I5 binding assays conducted as described previously ([Luo et al., 2010]; [Haugaard-Kedstrom et al., 2011]). […] Binding data are expressed as mean ± standard error of mean (SEM) of % specific binding of triplicate measurements pooled from at least three independent experiments. Data were analyzed using Graphpad PRISM (Graphpad Inc.) and a non-linear regression one-site binding model was used to plot curves and calculate pIC50 values. All the RXFP3 constructs used in this study contained an N-terminal HA epitope. The HA epitope was detected using a purified mouse monoclonal anti-HA antibody [HA.11(16B12), Covance] and a Alexafluor488-labeled goat anti mouse IgG (Invitrogen) in cell surface expression assays that were performed in 24 well plates as previously described ([Yan et al., 2008]). […] Specific binding data for RXFP3 mutants was expressed as mean ± SEM of % specific binding/%HA-RXFP3 cell surface expression of triplicate measurements pooled from at least three independent experiments. Pooled data were analyzed using one-way ANOVA coupled to Newman–Keuls multiple comparison test for multiple group comparison.
# [3] = target: T3, HA-RXFP3 E77A (Homo sapiens, UniProt Q9NSD7, E77A); assay: Competition binding with Eu-H3/I5, HA-RXFP3 E77A
# T3 construct: expressed in transfected cells; host or cells: HEK-293T
# T3 sequence (Q9NSD7 2-469 E77A limits assumed): T2 sequence (Q9NSD7 2-469 limits assumed) with E76A
# Description: as §1
# The same protocol was used to prepare DNA templates of all Glu/Asp to Ala mutants, entailing a single codon change except for D47A/E51A, E55A/D58A, and E141A/D145A which required a double codon change both to Ala. The forward and reverse primers for all mutants are listed in Table 1 and mutagenesis reactions on pcDNA3.1zeo (+)-HA-RXFP3 were performed as previously described ([Scott et al., 2006]; [Yan et al., 2008]). […]
# HEK-293T cells were transfected in 96 well optiplates (Perkin Elmer) with plasmids encoding the constructs of interest and Eu-H3/I5 binding assays conducted as described previously ([Luo et al., 2010]; [Haugaard-Kedstrom et al., 2011]). […] Binding data are expressed as mean ± standard error of mean (SEM) of % specific binding of triplicate measurements pooled from at least three independent experiments. Data were analyzed using Graphpad PRISM (Graphpad Inc.) and a non-linear regression one-site binding model was used to plot curves and calculate pIC50 values. […] The HA epitope was detected using a purified mouse monoclonal anti-HA antibody [HA.11(16B12), Covance] and a Alexafluor488-labeled goat anti mouse IgG (Invitrogen) in cell surface expression assays that were performed in 24 well plates as previously described ([Yan et al., 2008]). […]
smiles,measurement,setting,value
CC[C@H](C)[C@@H]1NC(=O)[C@H](Cc2ccccc2)NC(=O)[C@H](CCC(=O)O)NC(=O)[C@H](CCCNC(=N)N)NC(=O)CNC(=O)[C@@H](NC(=O)[C@H](CC(C)C)NC(=O)[C@H](CCCNC(=N)N)NC(=O)[C@@H](NC(=O)CNC(=O)[C@H](Cc2ccc(O)cc2)NC(=O)[C@@H]2CCCN2C(=O)[C@H](C)NC(=O)[C@H](C)NC(=O)[C@@H](N)CCCNC(=N)N)C(C)C)CSSC[C@@H]2NC(=O)[C@@H](NC(=O)[C@H](CO)NC(=O)[C@H](CO)NC(=O)[C@H](CO)NC(=O)[C@H](CC(C)C)NC(=O)CNC(=O)[C@H](C)NC(=O)[C@H](CC(C)C)NC(=O)[C@@H](NC(=O)[C@@H](N)CC(=O)O)C(C)C)CSSC[C@H](NC(=O)CNC(=O)[C@H](Cc3c[nH]c4ccccc34)NC(=O)[C@H](CCCCN)NC2=O)C(=O)N[C@@H](CO)C(=O)N[C@@H](CCCCN)C(=O)N[C@@H](CO)C(=O)N[C@@H](CCC(=O)O)C(=O)N[C@@H]([C@@H](C)CC)C(=O)N[C@@H](CO)C(=O)N[C@@H](CO)C(=O)N[C@@H](CC(C)C)C(=O)N[C@H](C(=O)O)CSSC[C@@H](C(=O)NCC(=O)NCC(=O)N[C@@H](CO)C(=O)N[C@@H](CCCNC(=N)N)C(=O)N[C@@H](Cc2c[nH]c3ccccc23)C(=O)O)NC(=O)[C@H]([C@@H](C)O)NC(=O)[C@H](Cc2ccccc2)NC(=O)[C@H]([C@@H](C)CC)NC(=O)[C@H](C(C)C)NC(=O)[C@H](C)NC(=O)[C@H](CCCNC(=N)N)NC1=O [H3 relaxin],IC50,[1],14.8 nM
same,effect on affinity of truncation,"[1]; vs HA-RXFP3, competition binding",no significant effect on the affinity
same,binding affinity compared with wild-type RXFP3,[2],no difference in the binding affinity
same,IC50,[3],31.6 nM
same,affinity compared with HA-RXFP3,"[3]; competition binding, p > 0.05",slightly lower H3 relaxin binding affinity but this was not significantly different from HA-RXFP3; also recorded: no significant difference in H3 relaxin affinity; also recorded: did not show a significant drop in binding
